Results on two compounds are retold here after patent publication US20250236589A1, “THERAPEUTIC PHENETHYLAMINE COMPOSITIONS AND METHODS OF USE” (Cybin IRL Limited, priority 2022, published 2025).

Series [1] deals with 5-HT7 (h) (subtype “a” or “b” not specified). The series is described as follows: Off-target screen, radioligand displacement at 10 μM. Type of series: binding, human. The following applies: agonist radioligand. (In general: Displacement assays read how much labelled ligand stays bound in the presence of the test substance.)
The nature of series [2]: In vitro liver microsome stability (DLM). The format is in vitro ADME. The following applies: dog, dog liver microsomes, 0.5 mg/mL microsomes, NADPH, read-out: DLM, t1/2. The method, then:
(§1) In vitro stability was determined in Human (HLM), Rat (RLM), Mouse (MsLM), and dog (DLM) Liver Microsomes. All liver microsomes were purchased from a commercial supplier (e.g. XenoTech). The reaction mixture, minus NADPH, was prepared as described below. The test compound was added into the reaction mixture at a final concentration of 1 μM or co-dosed with their deuterated analog(s) at 1 μM each. The control compound, testosterone, was run simultaneously with the test compound in a separate reaction. The reaction mixture (without cofactor) was equilibrated in a shaking water bath at 37° C. for 5 minutes. The reaction was initiated by the addition of the cofactor, and the mixture was incubated in a shaking water bath at 37° C. Aliquots (150 μL) were withdrawn at 0, 5, 10, 20, 30, 60, and 120 minutes. Test compound and testosterone samples were immediately combined with 150 μL of ice-cold acetonitrile (ACN) containing 0.1% formic acid and internal standard to terminate the reaction. The samples were then mixed and centrifuged to precipitate proteins. All samples were assayed by LC-MS/MS using electrospray ionization. […] Half-lives were calculated using GraphPad software, fitting to a single-phase exponential decay equation.

A short description of series [3]: In vitro liver microsome stability (MsLM). Type of series: in vitro ADME. The following applies: mouse, mouse liver microsomes, 0.5 mg/mL microsomes, NADPH, read-out: MsLM, t1/2. The method, then:
as §1

In series [4] the test system is C57BL/6J mice. Nature of the series: HTR time course after s.c. administration in C57BL/6J mice. Type of series: in vivo, mouse. The method, then:
5-HT2 agonist activity and relative duration of action in vivo of test compounds were assessed using the HTR assay in male, adult C57BL/6J mice (Jackson Laboratories). Mice were housed in standard laboratory cages with ad libitum access to food and water, and were acclimated to the vivarium for at least one week prior to testing in a procedure room. On the day of testing, mice were acclimated to the procedure room in their home cages for ≥60 min before administration of test compounds. Mice were injected subcutaneously, placed immediately thereafter in a clear, polycarbonate box (46×20×20 cm), and HTRs were counted at 5, 10, 15, 40, 120, 160, 200, 240, 280, 320, 360, and 1440 min, using hand-held tally counters, by two trained observers who were blind to treatment.

For series [5], the target named is MAO-A (Homo sapiens (Human), UniProt P21397). The series is described as follows: Recombinant human MAO-A activity (stability). The format is in vitro ADME. Conditions: hrMAO 0.02 mg/mL, read-out: MAO-A, t1/2. The method, then:
hrMAO-A and MAO control were purchased from XenoTech. The reaction mixture was prepared as described below. The test compound was added into the reaction mixture at a final concentration of 1 μM or co-dosed with their deuterated analog at 1 μM each. The positive control kynuramine (25 μM) was run simultaneously with the test compound in a separate reaction. The reaction mixture (without test compounds or kynuramine) was equilibrated in a shaking water bath at 37° C. for 5 minutes. The reaction was initiated by the addition of the test compound or kynuramine, and the mixture was incubated in a shaking water bath at 37° C. Aliquots (150 μL) of the test compound reaction mixture were withdrawn at 0, 5, 10, 20, 30, 60, and 120 minutes. Aliquots (150 μL) of the positive control reaction mixture were withdrawn at 0 and 30 minutes. Test compound(s) and kynuramine samples were immediately combined with 150 μL of ice-cold 100% acetonitrile containing 0.1% formic acid and internal standard (0.2 μM metoprolol) to terminate the reaction. The samples were then mixed and centrifuged to precipitate proteins. All samples were assayed by LC-MS/MS. The peak area response ratio (PARR) of analyte to internal standard at each time point was compared to the PARR at time 0 to determine the percent remaining at each time point. Half-lives were calculated using GraphPad software, fitting to a single-phase exponential decay equation.

Series [6] is described as follows: Brain protein binding. Conditions: dilute brain homogenate. The format is in vitro ADME. From the text:
The CSF concentrations were only 20% of that found in plasma. Concomitantly CSF concentrations were 1.6% of brain concentrations. The CSF/brain ratio corroborates brain protein binding experiments in which the free fraction of compound I-1 in dilute brain homogenate was 1.4%.

Series [7] addresses 5-HT1A receptors (Homo sapiens (Human), UniProt P08908). The series is described as follows: 5-HT1A radioligand binding ([3H]8-OH-DPAT). The method, then: In another series of 5-HT1A,2A,2B radioligand competition binding assays, the conditions were as follows: For 5-HT1A assays, cell membrane homogenates (˜30 μg protein) derived from HEK-293 cells expressing human 5-HT1ARs were incubated with 0.5 nM [^3H]8-hydroxy-2-(di-n-propylamino)tetralin ([^3H]8-OH-DPAT) for 60 min at room temperature in the presence or absence of the test article. Non-specific binding was determined in the presence of 10 μM 8-OH-DPAT. Samples were then analyzed as described above, with only immaterial differences. […] Samples were then analyzed as described above.

Series [8] deals with T1, human alpha2A receptor (Homo sapiens (Human), UniProt P08913). The series is described as follows: alpha2A receptor function. Type of series: cell-based.
The target in series [9] is human alpha2B receptor (Homo sapiens (Human), UniProt P18089). Nature of the series: alpha2B receptor binding ([3H]rauwolscine). The method, then: At 10 μM, I-1 inhibited 97% of radioligand bound to rat alpha2 receptors.
In series [10] the test system is Adrenergic α2 (subtype not identified) (rat cortex). Nature of the series: Off-target screen, radioligand displacement at 10 μM. The format is binding. The following applies: antagonist radioligand.
For series [11], the target named is T2, 5-HT2A receptor (Homo sapiens (Human), UniProt P28223). The series is described as follows: 5-HT2A radioligand binding ([125I](±)DOI).
For series [12], the target named is T1, human alpha2A receptor. Nature of the series: alpha2A receptor binding ([3H]rauwolscine).
The target in series [13] is T2, 5-HT2A receptor. The series is described as follows: 5-HT2A radioligand competition binding ([3H]LSD or [3H]ketanserin).
Series [14] in a line: Plasma and brain concentrations after dosing in mice (screening). The format is in vivo, mouse. Conditions: for concentration at 160 min: sc, mice, 3 mg/kg s.c.

Read-outs that look alike come from different tables or passages of the source.

T1 sequence (P08913 whole entry): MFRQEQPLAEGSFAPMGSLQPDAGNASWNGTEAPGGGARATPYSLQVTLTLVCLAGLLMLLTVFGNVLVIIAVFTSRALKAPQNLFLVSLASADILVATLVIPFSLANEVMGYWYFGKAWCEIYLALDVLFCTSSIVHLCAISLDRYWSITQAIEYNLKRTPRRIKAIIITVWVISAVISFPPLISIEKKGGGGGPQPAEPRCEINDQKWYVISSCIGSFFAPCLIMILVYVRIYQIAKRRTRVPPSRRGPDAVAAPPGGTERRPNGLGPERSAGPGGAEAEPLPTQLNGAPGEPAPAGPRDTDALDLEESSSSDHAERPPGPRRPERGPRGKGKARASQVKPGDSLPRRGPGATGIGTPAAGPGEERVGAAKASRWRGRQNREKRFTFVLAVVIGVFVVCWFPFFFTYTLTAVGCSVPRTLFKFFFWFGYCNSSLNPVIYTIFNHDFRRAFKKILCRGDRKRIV
Sequence of human alpha2B receptor (P18089 whole entry): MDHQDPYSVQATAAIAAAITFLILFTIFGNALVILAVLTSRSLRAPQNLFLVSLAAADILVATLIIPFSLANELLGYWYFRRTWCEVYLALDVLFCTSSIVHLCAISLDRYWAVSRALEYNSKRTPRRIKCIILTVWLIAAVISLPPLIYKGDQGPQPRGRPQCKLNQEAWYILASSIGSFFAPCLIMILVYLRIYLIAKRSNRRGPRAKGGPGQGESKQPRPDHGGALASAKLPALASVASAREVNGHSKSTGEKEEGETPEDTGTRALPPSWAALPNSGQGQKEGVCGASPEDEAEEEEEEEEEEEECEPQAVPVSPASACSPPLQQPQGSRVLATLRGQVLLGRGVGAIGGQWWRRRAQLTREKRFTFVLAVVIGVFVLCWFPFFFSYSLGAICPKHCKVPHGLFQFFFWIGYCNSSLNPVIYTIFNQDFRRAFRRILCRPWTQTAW
Sequence of MAO-A (P21397 whole entry, looked up): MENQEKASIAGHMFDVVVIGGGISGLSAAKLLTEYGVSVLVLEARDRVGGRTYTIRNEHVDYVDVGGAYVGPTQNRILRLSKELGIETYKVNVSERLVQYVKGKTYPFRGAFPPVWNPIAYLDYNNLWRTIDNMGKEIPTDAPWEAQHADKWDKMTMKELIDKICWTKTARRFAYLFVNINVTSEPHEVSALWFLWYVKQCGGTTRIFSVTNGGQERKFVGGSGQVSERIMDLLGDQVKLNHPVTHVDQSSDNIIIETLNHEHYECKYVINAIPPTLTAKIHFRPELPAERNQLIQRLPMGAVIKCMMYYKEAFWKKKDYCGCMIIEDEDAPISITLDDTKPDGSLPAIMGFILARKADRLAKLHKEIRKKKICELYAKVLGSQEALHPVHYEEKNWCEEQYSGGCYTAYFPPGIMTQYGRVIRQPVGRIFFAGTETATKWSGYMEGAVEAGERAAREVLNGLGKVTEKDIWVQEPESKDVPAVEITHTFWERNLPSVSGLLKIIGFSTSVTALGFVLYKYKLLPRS

As for `COc1cc(CC(C)N)c(OC)cc1I` (racemic) [DOI, (±)-2,5-dimethoxy-4-iodoamphetamine, reference compound], in [1], the “inhibition at 10 µM” value amounted to 58.4% inhibition at 10 μM.
For the compound `COc1cc(SC(F)(F)F)c(OC)cc1CCN` [Compound I-1, 2-(2,5-dimethoxy-4-((trifluoromethyl)thio)phenyl)ethan-1-amine], the half-life at 1 μM in series [2], in [3] and in series [5] was > 2 h in each case. Besides, the “HTR, dose-response” value in [4] (0.1, 0.3, 1, 3 mg/kg s.c.) is recorded as “robust dose-dependent HTR”. Moreover, the “HTR duration versus DOI” value in series [4] (DOI 1 mg/kg s.c.) is given as “persisted longer”. The compound also came in with a free fraction (fraction unbound) in series [6] of 0.014. This compound yielded an inhibition at 0.1 µM in series [7] (100 nM) of 55%. Further, the inhibition at 1 µM in [7] (1 uM) came to 90%. For the same compound, in [8], the EC50 came out at 165 nM. For the same compound, the Ki stood at 1020 nM in [9]; 0.35 nM in [11] (radioligand [125I](±)DOI); 66 nM in [12]; 54 nM in series [13]; 2.5 nM in [13] (read-out: 5-HT2A, Ki, [3H]ketanserin, high-affinity active state). For the same compound, the “inhibition at 10 µM” value in series [10] is 97.3%; in series [11], > 80%. The “binding selectivity for 5-HT2A over 5-HT2B” value in [11] (Ki, [125I]DOI) was ~19 fold. Further, in series [13], the “affinity at 5-HT2A receptors (in words)” value was “superior affinity”. Besides, the “brain/plasma ratio, 160 min” value in series [14] (160 min after 3 mg/kg) came to 32.4. Moreover, the concentration at 160 min in series [14] (mouse, brain, read-out: Brain, 160 min) was 9.6 µM; in series [14] (mouse, plasma, read-out: Plasma, 160 min), 0.3 µM. Besides, in series [14] (mouse, brain/plasma, subcutaneous, 3 mg/kg, 160 min after 3 mg/kg, read-out: brain/plasma ratio, 160 min), the Kp at 160 min is 24 to 32.

The fraction unbound is the share of the substance not bound to proteins or other matrix. Higher therefore signals weak binding. Broadly, the EC50 is the concentration at which the effect is half-maximal. Read a high EC50 as a less potent agent. A word on the Ki: it is the equilibrium dissociation constant of an inhibitor or competing ligand from its target.
